The text below walks through data of patent publication US8080644B2, “Oligonucleotide analogues” (Exiqon A/S, priority 1997, dated 2011).

Data set [1] addresses exonuclease free Klenow fragment DNA polymerase I (EFK) (Escherichia coli, UniProt P00582, D355A/E357A). To be noted: 500 μM LNA NTP, 2 units EFK, 37° C., 3 min. How it is done:
A primer extension assay was used to evaluate the LNA NTP's (see Example 123), ribonucleotides, as substrates for exonuclease free Klenow fragment DNA polymerase I (EFK). The assay used a ^33P 5′ end labelled 15mer primer hybridised to one of four different 24mer templates. The sequences of the primer and templates are (LNA monomer in bold):
One picomole ^33P labelled primer was hybridised to 2 picomoles of template in ×2 Klenow buffer. To this was added either 4 μM dNTPαS or 500 μM LNA NTP or a mixture of 4 μM dNTPαS and 500 μM LNA NTP. Two units of EFK DNA polymerase was added to each reaction. 2 mU inorganic pyrophosphatase was added to each of the reactions. Primer plus template plus enzyme controls were also carried out. All reactions were carried out in a total volume of 20 μl. The reactions were incubated at 37° C. for 3 min. Reactions were then stopped by the addition of 10 μl formamide EDTA stop solution. Reaction products were separated on a 19% polyacrylamide 7M urea gel and the product fragments sized by comparison with a ^33P labelled 8 to 32 base oligonucleotide ladder after exposure to Kodak Biomax autoradiography film.

Data set [2] has as its target terminal deoxynucleotidyl transferase (TdT) (Bos taurus, UniProt P06526). Put plainly: Oligonucleotide tailing reaction with triphosphate as substrate. Type of data set: biochemical. To be noted: 15mer primer, 25 U TdT, 32, 64 or 128 μM triphosphate, 90 min, 37° C. How it is done:
LNA-thymidine-5'-triphosphate (LNA-TTP) as a substrate for terminal deoxynucleotidyl transferase (TdT). In order to test the ability of the triphosphate of LNA-TTP (Example 123) to be accepted by terminal deoxynucleotidyl transferase as a substrate, an oligonucleotide tailing reaction was performed. A 15mer primer (sequence: [NT] ID NO:14) and a mixture of 8 to 32 base oligonucleotide markers were 5' end labelled with [γ^33P] ATP and T4 polynucleotide kinase. Reactions were boiled for 5 min after labelling to remove any PNK activity. Four picomoles of the labelled primer, 25 U terminal deoxynucleotidyl transferase and 32, 64 or 128 μM dTTP or LNA-TTP were incubated in 25 μl 100 mM cacodylate buffer pH 7.2, 2 mM CoCl2 and 0.2 mM 2-mercaptoethanol for 90 min at 37° C. […] Autoradiography using Biomax film was carried out on the dry gel.

In data set [3] the test system is MCF-7 human breast cancer cells.
Data set [4] has as its system Nras amplicons (Nras 910, Nras 600, Nras 200). Put plainly: Capture of Nras PCR amplicons by immobilised probes. Type of data set: binding, human. The following applies: native amplicons; 1 pmol probe per well. How it is done: Three DIG labelled amplicons from Nras sequence (ref.: Nucleic Acid Research, 1985, Vol. 13, No. 14, p 52-55) were generated by PCR amplification as follows:
PCR reaction mixture for Nras amplicons: 2.3 μl human placental genomic DNA (440 ng/μl), 50 μl 10×PCR buffer (without MgCl2 Perkin Elmer), 30 μl 25 mM MgCl2, 50 μl dNTP-mix (2 mM dATP, dCTP, dGTP and 1.8 mM dTTP), 10 μl 1 mM Dig-11-dUTP, 10 μl 25 μM forward primer, 10 μl 25 μM reverse primer, 5 μl 5 U/μl AmpliTaq Gold (Perkin Elmer) and water ad 500 μl. PCR reaction: The above mixture was made for all the Nras PCR products. The only difference being reverse primer 910 bp, 600 bp or 200 bp added once at a time. The PCR mixtures were aliquoted into ten PCR tubes each and cycled in a Perkin Elmer 9600 at the following conditions: 95° C. 3 min; 55° C. 2 min, 72° C. 3 min, 95° C. 1 min (30 cycles); 55° C. 2 min, 72° C. 10 min and 4° C. soak. 10 μl from each PCR reaction was analysed on a standard agarose gel and the expected fragments of approximately 910 bp, 600 bp and 200 bp were observed. Assay conditions: Wells of a streptavidin coated micro-titer plate (Boehringer Mannheim; binding capacity of 20 pmol biotin per well) were incubated for 1 hour in 5×SSCT (0.75 M NaCl, 75 mM citrate, pH 7.0, 0.1% Tween 20) at 37° C. with either 1 pmol of DNA Nras Cap A (biotin-5′-TTCCACAGCACAA-3′) (SEQ ID NO:37), LNA/DNA Nras Cap A (biotin-5′-TTCCACAGCACAA-3′) (SEQ ID NO:38), LNA Nras Cap A (biotin-5′-TTCCACAGCACAA-3′) (SEQ ID NO:39), DNA Nras Cap B (biotin-5′-AGAGCCGATAACA-3′) (SEQ ID NO:40), LNA/DNA Nras Cap B (biotin-5′-AGAGCCGATAACA-3′) (SEQ ID NO:41) or LNA Nras Cap B (biotin-5′-AGAGCCGATAACA-3′) (SEQ ID NO:42); LNA nucleosides in bold. The Nras Cap A capture probes capture amplicons Nras 910, Nras 600 and Nras 200. Nras Cap B capture probes capture specific amplicons Nras 910 and Nras 600. After incubation with the different capture probes, the wells were washed in 5×SSCT and 5 μl native or denatured (95° C. 5 min and 10 min on ice) DIG-labelled amplicons (Nras 910, Nras 600 or Nras 200) in 95 μl 1×SSCT (0.15 M NaCl, 15 mM citrate, pH 7.0, 0.1% Tween 20) were added per well and incubated for 1 hour at 37° C. The wells were washed three times in phosphate buffered saline (1×PBST, 0.15 M Nat, pH 7.2, 0.05% Tween 20) and incubated 30 min at 37° C. with 200 μl peroxidase labelled anti-DIG antibodies (Boehringer Mannheim, diluted 1:1000 in 1×PBST). Finally the wells were washed three times in 1×PBST and assayed for peroxidase activity by adding 100 μl of substrate solution (0.1 M citrate-phosphate buffer pH 5.0, 0.66 mg/ml ortho-phenylenediamine dihydrochloride, 0.012% H2O2) the reaction was stopped after 9 min by adding 100 μl 0.5 M H2SO4 and diluted 4 times in H2SO4 before the absorbance at 492 nm was read in a micro-titer plate reader. […] We conclude that LNA modified oligos containing mixed LNA nucleosides (A, T, G or C LNA nucleosides) function efficiently in sequence specific capture of PCR amplicons when immobilised on a solid surface. We further conclude that LNA offers a means to construct capture probes that will function efficiently in amplicon capture without prior denaturation i.e. capture by strand displacement. This ability facilitates a significant simplification of current amplicon detection formats based on DNA.

In the next data set the target is Exonuclease III (Escherichia coli, UniProt P09030).

Turning to `Nc1ncnc2c1ncn2[C@@H]1O[C@@]2(COP(=O)(O)OP(=O)(O)OP(=O)(O)O)CO[C@@H]1[C@@H]2O` [LNA ATP], the “incorporation into a DNA strand” value in data set [1] was “efficiently incorporated to give the +1 product”. With `Nc1ccn([C@@H]2O[C@@]3(COP(=O)(O)OP(=O)(O)OP(=O)(O)O)CO[C@@H]2[C@@H]3O)c(=O)n1` [LNA CTP], the “incorporation into a DNA strand” value in data set [1] was “efficiently incorporated to give the +1 product on Template 4”. The same measure, in the same setting: then `Nc1nc2c(ncn2[C@@H]2O[C@@]3(COP(=O)(O)OP(=O)(O)OP(=O)(O)O)CO[C@@H]2[C@@H]3O)c(=O)[nH]1` [LNA GTP], with “able to produce the +1 product with efficient extension of the primer”. Consider `O=c1ccn([C@@H]2O[C@@]3(COP(=O)(O)OP(=O)(O)OP(=O)(O)O)CO[C@@H]2[C@@H]3O)c(=O)[nH]1` [LNA UTP], for which, in data set [1], the “incorporation into a DNA strand” value is “specifically incorporated as a “T””. `Cc1cn(C2OC3(COP(=O)(O)OP(=O)(O)OP(=O)(O)O)COC2C3O)c(=O)[nH]c1=O` (centres unmarked) [LNA-TTP, LNA-thymidine-5′-triphosphate]: in data set [2], the “fraction of +1 product extended by a further base” value is about 50% and the primer extension product result is “extended by one base”. As to `Cc1cn([C@H]2C[C@H](O)[C@@H](COP(=O)(O)OP(=O)(O)OP(=O)(O)O)O2)c(=O)[nH]c1=O` [dTTP, reference compound], the primer extension product entry in data set [2] is given as “greater than 100 nucleotides”. For “AL17: LNA oligo 5′-d(ATA AAG TGT AAA G)-3′ (SEQ ID NO:58); also fluorescein/FITC-labelled (DNA ATAAAGTGTAAAG; LNA-containing, positions not given here, fluorescein label)”, in data set [3], the “added radioactivity associated with cellular material” value was “approximately 0.4%”. For “DNA Nras Cap A: biotin-5′-TTCCACAGCACAA-3′ (SEQ ID NO:37), DNA capture probe (DNA, 5' {Biotin}, backbone not given here) [reference compound]”, the “capture of specific amplicons without prior denaturation” value in data set [4] is recorded as “do not capture the specific amplicons at all”. Same read-out and setting: then “DNA Nras Cap B: biotin-5′-AGAGCCGATAACA-3′ (SEQ ID NO:40), DNA capture probe (DNA, 5' {Biotin}, backbone not given here) [reference compound]”, with “do not capture the specific amplicons at all”; and “LNA Cap B: biotin-5′-AGAGCCGATAACA-3′ (SEQ ID NO:42), spiked with 12 LNA nucleosides (12 LNA nucleosides, positions not given here, 5' biotin)”, with “capture very efficiently the specific amplicons without prior denaturation”.

On to “LNA Nras Cap A: biotin-5′-TTCCACAGCACAA-3′ (SEQ ID NO:39), spiked with 12 LNA nucleosides (LNA nucleosides spiked in, positions not given here, 5' biotin)”, for which the “capture of specific amplicons without prior denaturation” value in data set [4] was “capture very efficiently the specific amplicons without prior denaturation”. Same read-out and setting: then “LNA/DNA Nras Cap A: biotin-5′-TTCCACAGCACAA-3′ (SEQ ID NO:38), spiked with 4 LNA nucleosides (LNA nucleosides spiked in, positions not given here, 5' biotin)”, with “capture the same amplicons with a lower efficiency”; and “LNA/DNA Nras Cap B: biotin-5′-AGAGCCGATAACA-3′ (SEQ ID NO:41), spiked with 4 LNA nucleosides (LNA nucleosides spiked in, positions not given here, 5' biotin)”, with “capture the same amplicons with a lower efficiency”. In the case of “ODN#10: oligodeoxynucleotide (SEQ ID NO:56), a 35-mer complementary to human Cathepsin D (DNA TTAACGTAGGTGCTGGACTTGTCGCTGTTGTACTT; DNA, backbone and methylation of C not given here) [reference compound]”, in data set [3], the “added radioactivity associated with cellular material” value was “approximately 1.4%”. On to “P2: 5′-GC ATG TGC TGG AGA T-3′ (SEQ ID NO: 11), DNA primer (DNA GCATGTGCTGGAGAT; DNA, backbone and methylation of C not given here) [reference compound]”, for which the “full length product left after the 5 minute incubation” value in the data set with Exonuclease III (10 Units Exonuclease III, 37° C., 5 min, primer hybridised to template) is listed as 20%. Moreover, in the data set with Exonuclease III (in the absence of the enzyme), the “full length band, % of the signal” value worked out at 99%.
